The values below come from US4528296A, “Derivatives of aminopyridinecarboxylic acids and pharmaceutical compositions containing them” (Simes, Societa Italiana Medicinalle Sintetici, priority 1982, dated 1985).

A short description of data set [1]: Acute toxicity in mice after oral administration. As to conditions: mouse, in vivo. It counts as in vivo. The source says: (§1) The acute toxicity of compounds of this invention has been evaluated after oral administration in mice
For another data set, the target named is T1, amino peptidase (Rattus norvegicus, UniProt F1M9V7).
T1 construct: as enzyme source it has been used the soluble fraction of point (a) above; from tissue; host or cells: rat striatum, soluble fraction
T1 sequence (F1M9V7 1-920): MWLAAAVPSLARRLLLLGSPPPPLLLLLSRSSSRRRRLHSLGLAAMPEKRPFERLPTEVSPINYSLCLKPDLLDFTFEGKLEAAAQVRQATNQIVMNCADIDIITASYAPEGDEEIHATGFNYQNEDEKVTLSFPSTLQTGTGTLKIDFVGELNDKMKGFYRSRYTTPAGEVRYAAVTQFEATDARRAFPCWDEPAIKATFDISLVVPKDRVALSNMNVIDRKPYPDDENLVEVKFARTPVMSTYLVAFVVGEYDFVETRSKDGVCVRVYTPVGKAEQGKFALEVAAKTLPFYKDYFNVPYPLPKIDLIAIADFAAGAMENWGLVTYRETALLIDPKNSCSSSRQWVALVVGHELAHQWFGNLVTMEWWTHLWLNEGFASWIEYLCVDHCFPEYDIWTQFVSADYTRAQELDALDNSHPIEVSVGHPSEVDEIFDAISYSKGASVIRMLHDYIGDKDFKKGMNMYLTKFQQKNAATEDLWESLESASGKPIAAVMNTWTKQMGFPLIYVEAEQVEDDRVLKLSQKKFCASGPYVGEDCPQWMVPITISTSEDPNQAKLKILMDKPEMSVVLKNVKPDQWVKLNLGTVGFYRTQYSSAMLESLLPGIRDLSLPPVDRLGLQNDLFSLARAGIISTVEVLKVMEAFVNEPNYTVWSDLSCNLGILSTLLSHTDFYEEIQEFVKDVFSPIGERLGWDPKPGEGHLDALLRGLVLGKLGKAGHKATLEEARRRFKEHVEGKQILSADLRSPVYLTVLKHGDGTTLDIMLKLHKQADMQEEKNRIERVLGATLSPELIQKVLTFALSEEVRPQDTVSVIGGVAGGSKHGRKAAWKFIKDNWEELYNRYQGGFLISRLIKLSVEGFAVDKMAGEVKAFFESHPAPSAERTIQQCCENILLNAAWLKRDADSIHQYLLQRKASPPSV
The experiment in a line: Inhibition of amino peptidase, soluble fraction of rat striata, 3H-Tyr-Leucine-Enkephalin substrate. In kind it is biochemical, rats. Conditions: read-out: Drug concentration which inhibits 50% of the enzymatic activities (IC50(M)), Amino Peptidase. From the text:
The evaluation of the inhibitory effect on enkephalinase and on aminopeptidase activity respectively has been made as follows: […]

For data set [2], the target named is T2, enkephalinase (Mus musculus, UniProt Q61391).
T2 construct: potentiation of the analgesic effect induced in mice by Methionine-Enkephalin; from tissue; host or cells: endogenous enzyme in the brain of living mice (intracerebral administration)
T2 sequence (Q61391 1-750): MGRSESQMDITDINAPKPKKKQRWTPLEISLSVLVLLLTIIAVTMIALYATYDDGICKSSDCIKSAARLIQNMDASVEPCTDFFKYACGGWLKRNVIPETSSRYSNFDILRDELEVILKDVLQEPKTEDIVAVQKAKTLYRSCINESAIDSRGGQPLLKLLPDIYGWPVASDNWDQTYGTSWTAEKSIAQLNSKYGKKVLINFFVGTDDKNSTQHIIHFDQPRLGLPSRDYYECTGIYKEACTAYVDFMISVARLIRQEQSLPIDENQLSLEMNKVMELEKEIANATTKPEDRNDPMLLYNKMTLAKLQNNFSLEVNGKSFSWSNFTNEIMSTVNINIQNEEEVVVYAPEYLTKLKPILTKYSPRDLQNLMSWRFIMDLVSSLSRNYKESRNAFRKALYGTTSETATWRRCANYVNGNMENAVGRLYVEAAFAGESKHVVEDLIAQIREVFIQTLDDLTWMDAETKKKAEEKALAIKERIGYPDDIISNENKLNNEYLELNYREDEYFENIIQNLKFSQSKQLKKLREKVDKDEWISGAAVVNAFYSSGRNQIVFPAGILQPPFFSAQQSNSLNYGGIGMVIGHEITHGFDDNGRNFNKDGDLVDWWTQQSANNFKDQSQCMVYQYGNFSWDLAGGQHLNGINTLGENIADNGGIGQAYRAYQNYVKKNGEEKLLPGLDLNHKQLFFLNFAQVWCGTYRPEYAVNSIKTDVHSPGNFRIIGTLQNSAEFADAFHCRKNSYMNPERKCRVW
Put plainly: Potentiation of Met-Enk analgesia in mice, hot plate test, intracerebral administration. In kind it is in vivo. For orientation: Thermal pain tests record how soon the animal reacts.

In data set [3] the target is T3, enkephalinase (Rattus norvegicus, UniProt P07861).
T3 construct: enzymatic preparation extracted from the particulate fraction of striata of rats; from tissue; host or cells: rat striatum, particulate fraction purified on discontinuous sucrose gradient
T3 sequence (P07861 1-750): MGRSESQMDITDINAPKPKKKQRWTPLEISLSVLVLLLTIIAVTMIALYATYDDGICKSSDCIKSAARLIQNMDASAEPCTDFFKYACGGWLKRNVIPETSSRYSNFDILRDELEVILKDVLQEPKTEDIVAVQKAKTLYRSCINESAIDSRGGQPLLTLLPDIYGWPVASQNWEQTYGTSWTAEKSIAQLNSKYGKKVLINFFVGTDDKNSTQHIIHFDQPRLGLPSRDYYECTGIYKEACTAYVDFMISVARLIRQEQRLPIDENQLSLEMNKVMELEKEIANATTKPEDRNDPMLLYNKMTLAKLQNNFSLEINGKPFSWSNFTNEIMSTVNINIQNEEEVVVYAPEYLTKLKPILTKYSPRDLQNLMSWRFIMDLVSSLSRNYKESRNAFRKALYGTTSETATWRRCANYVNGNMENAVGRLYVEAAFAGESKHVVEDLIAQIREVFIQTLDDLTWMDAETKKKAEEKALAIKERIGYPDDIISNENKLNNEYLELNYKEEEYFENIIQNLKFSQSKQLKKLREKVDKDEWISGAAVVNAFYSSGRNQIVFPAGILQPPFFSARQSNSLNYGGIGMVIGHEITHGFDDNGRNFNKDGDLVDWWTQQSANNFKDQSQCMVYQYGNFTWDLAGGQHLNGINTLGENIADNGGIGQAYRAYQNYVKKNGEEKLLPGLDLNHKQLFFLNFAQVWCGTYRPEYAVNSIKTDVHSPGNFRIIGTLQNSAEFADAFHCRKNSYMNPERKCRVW
Put plainly: Inhibition of enkephalinase, particulate fraction of rat striata, 3H-Tyr-Leucine-Enkephalin substrate. In kind it is biochemical, rats. Conditions: read-out: Drug concentration which inhibits 50% of the enzymatic activities (IC50(M)), Enkephalinase. The source says: The evaluation of the inhibitory effect on enkephalinase and on aminopeptidase activity respectively has been made as follows:
(a) enkephalinase: it has been used the enzymatic preparation extracted from the particulate fraction of striata of rats purified on discontinous gradient of sucrose (Blumberg et al., Life Sci., 28, (1981), 301); the evaluation of the enzymatic activity has been made using ^3 H-Tyr-Leucine-Enkephalin as substrate (Vogel and Alstein, FEBS Lett., 80, (1977), 332).

The next data set concerns mice. Put plainly: Acute toxicity in mice after oral administration. It counts as in vivo.
Text: as §1

Setting [4] is: Met-Enk 50 μg/ic + compound 25 μg/ic.
Where [5] appears, read: Met-Enk 50 μg/ic + compound 50 μg/ic.
Where [6] appears, read: Met-Enk 50 μg/ic + compound 12,5 μg/ic.

The LD50 is the dose expected to kill half of the subjects tested. As for `COC(=O)c1ncccc1NC(=O)C(C)CS` (stereo not shown) [Example 25, methyl 3-(2-mercaptomethyl-propionamido)-picolinate], the LD50 in data set [1] is 329 mg/kg.

Consider `CC(CS)C(=O)Nc1ccc(C(=O)O)nc1` (stereo not shown) [Example 23, 5-(2-mercaptomethyl-propionamido)-picolinic acid], for which the IC50 on amino peptidase was above 1e-06 M; on enkephalinase [3], 2e-07 M. In addition, on enkephalinase [2] (setting [4]), the “Latency Time X ± SE (sec)” value is 26,1 ± 2,1 sec.

For `CC(C)C[C@H](NC(=O)[C@@H](O)[C@H](N)Cc1ccccc1)C(=O)O` [Bestatin, reference compound], the IC50 is 2e-07 M on amino peptidase and above 1e-06 M at enkephalinase [3].

Consider `C[C@H](CS)C(=O)N1CCC[C@H]1C(=O)O` [Captopril, 1,-(3-mercapto-2-methyl-1-oxopropyl)-L-proline, reference compound], for which the IC50 at amino peptidase and on enkephalinase [3] was above 1e-06 M each time.

With `O=C(O)c1ccnc(NC(=O)C(CS)Cc2ccccc2)c1` (stereo not shown) [Example 28, 2-(2-mercaptomethyl-3-phenyl-propionamido)-isonicotinic acid], the IC50 at amino peptidase is above 1e-06 M; on enkephalinase [3], 1.8e-09 M. For the same molecule, the “Latency Time X ± SE (sec)” value at enkephalinase [2] (setting [5]) is given as 27,0 ± 1,6 sec.

As for `CC(CS)C(=O)Nc1cncc(C(=O)O)c1` (stereo not shown) [Example 14, 5-(2-mercaptomethyl-propionamido)-nicotinic acid], the IC50 at amino peptidase is above 1e-06 M; at enkephalinase [3], 5e-08 M. Moreover, the “Latency Time X ± SE (sec)” value on enkephalinase [2] (setting [4]) is 27,7 ± 1,5 sec.

Regarding `COC(=O)c1cncc(NC(=O)C(C)CS)c1` (stereo not shown) [Example 13, methyl 5-(2-mercaptomethyl-propionamido)-nicotinate], the results for the IC50 at amino peptidase and at enkephalinase [3] were above 1e-06 M and 2e-07 M, respectively.

In the data set with mice, “2-(2-acetylthiomethyl-propionamido)-picolinic acid [Example 26]” gave a 50% lethal dose (LD50) of 421 mg/kg.

In the case of `COC(=O)c1cncc(N(C)C(=O)C(C)CSC(C)=O)c1` (stereo not shown) [Example 16, methyl 5-(2-acetylthiomethyl-N-methyl-propionamido)-nicotinate], the results for the IC50 on amino peptidase and on enkephalinase [3] were above 1e-06 M and 7e-07 M, respectively. The “Latency Time X ± SE (sec)” value at enkephalinase [2] (Met-Enk 50 μg/ic + compound 5 μg/ic) is 14,8 ± 1,1 sec.

In the case of `CC(CS)C(=O)N(C)c1cncc(C(=O)O)c1` (stereo not shown) [Example 17, 5-(2-mercaptomethyl-N-methyl-propionamido)-nicotinic acid], the values for the IC50 on amino peptidase and on enkephalinase [3] were above 1e-06 M and 1e-07 M, respectively. Further, on enkephalinase [2] (setting [5]), the “Latency Time X ± SE (sec)” value is recorded as 13,8 ± 1,4 sec.

Regarding `C[C@H](CSC(=O)c1ccccc1)C(=O)Nc1cncc(C(=O)O)c1` [Example 18a, S(-)-5-(2-benzoylthiomethyl-propionamido)-nicotinic acid], the IC50 on amino peptidase was above 1e-06 M; on enkephalinase [3] it was 3e-07 M. For the same molecule, at enkephalinase [2] (setting [5]), the “Latency Time X ± SE (sec)” value is given as 13,1 ± 0,9 sec.

As to “Methionine-Enkephalin [Met--Enk, reference compound]”, the “Latency Time X ± SE (sec)” value on enkephalinase [2] (Met-Enk alone 50 μg/ic) is 14,7 ± 1,3 sec.

As for `COC(=O)c1ncccc1NC(=O)C(C)CSC(C)=O` (stereo not shown) [Example 24, methyl 3-(2-acetylthiomethyl-propionamido)-picolinate], in data set [1], the LD50 is 390 mg/kg.

As for `CC(CS)C(=O)Nc1ccc(C(=O)O)cn1` (stereo not shown) [Example 8, 6-(2-mercaptomethyl-propionamido)-nicotinic acid], the IC50 was above 1e-06 M on amino peptidase and 5e-07 M on enkephalinase [3]. In addition, at enkephalinase [2] (setting [6]), the “Latency Time X ± SE (sec)” value is 19,6 ± 2,1 sec.

`CC(CS)C(=O)Nc1cc(C(=O)O)ccn1` (stereo not shown) [Example 31, 2-(2-mercaptomethyl-propionamido)-isonicotinic acid]: the IC50 at amino peptidase was above 1e-06 M; on enkephalinase [3] it was 5e-07 M. In addition, the “Latency Time X ± SE (sec)” value on enkephalinase [2] (setting [6]) is given as 15,4 ± 1,2 sec.
